Reference: patent US12331040B2 (Karyopharm Therapeutics Inc., priority 2013, dated 2025)

Columns and labels:
Assay in all cases: MTT cell proliferation assay
Type in all cases: cell-based
RKO cells = settings: Homo sapiens, 72-hour MTT
Experimental: (§1) The MTT cell proliferation assay was used to study the cytotoxic properties of the compounds. The assay was performed according to the method described by Roche Molecular Biochemicals, with minor modifications. The assay is based on the cleavage of the tetrazolium salt, MTT, in the presence of an electron-coupling reagent. The water-insoluble formazan salt produced must be solubilized in an additional step. Cells grown in a 96-well tissue culture plate were incubated with the MTT solution for approximately 4 hours. After this incubation period, a water-insoluble formazan dye formed. After solubilization, the formazan dye was quantitated using a scanning multi-well spectrophotometer (ELISA reader). […] The cells were seeded at 5,000-10,000 cells in each well of 96-well plate in 100 μL of fresh culture medium and were allowed to attach overnight. The stock solutions of the compounds were diluted in 100 μL cell culture medium to obtain eight concentrations of each test compound, ranging from 1 nM to 30 μM. […] All optical densities were measured at 490 nm using a Vmax Kinetic Microplate Reader (Molecular Devices). In most cases, the assay was performed in duplicate and the results were presented as a mean percent inhibition to the negative control±SE. The following formula was used to calculate the percent of inhibition: Inhibition (%)=(1−(ODo/OD))×100.
(§2) Compounds 504, 510, 525 and 585 were further tested against selected solid and hematological cancer cell lines and selected normal cell lines in a 72-hour MTT cell proliferation assay.

HTB-38 cells = settings: 72-hour MTT
Experimental: as §1, §2

NCI-H2170 cells = settings: Homo sapiens, 72-hour MTT
Experimental: as §1, §2

HCC-2935 cells = settings: Homo sapiens, HCC2935, 72-hour MTT
Experimental: as §1, §2

HCT116.1 cells = settings: 72-hour MTT
Experimental: as §1, §2

Panc-1 cells = settings: Homo sapiens, 72-hour MTT
Experimental: as §1, §2

HPAC cells = settings: Homo sapiens, 72-hour MTT
Experimental: as §1, §2

RL cells = settings: Homo sapiens, 72-hour MTT
Experimental: as §1, §2

NCI-H508 cells = settings: Homo sapiens, 72-hour MTT
Experimental: as §1, §2

KG-1 cells = settings: Homo sapiens, 72-hour MTT
Experimental: as §1, §2

MINO cells = settings: Homo sapiens, 72-hour MTT
Experimental: as §1, §2

DB cells = settings: Homo sapiens, 72-hour MTT
Experimental: as §1, §2

NCI-H2030 cells = settings: Homo sapiens, 72-hour MTT
Experimental: as §1, §2

CAPAN-1 cells = settings: Homo sapiens, 72-hour MTT
Experimental: as §1, §2

ARPE-19 cells = settings: Homo sapiens, 72-hour MTT
Experimental: as §1, §2

PATU-8988T cells = settings: Homo sapiens, 72-hour MTT
Experimental: as §1, §2

PANC-10.05 cells = settings: Homo sapiens, Panc1005, 72-hour MTT
Experimental: as §1, §2

Daudi cells = settings: Homo sapiens, 72-hour MTT
Experimental: as §1, §2

Pfieffer cells = settings: 72-hour MTT
Experimental: as §1, §2

SW-403 cells = settings: Homo sapiens, 72-hour MTT
Experimental: as §1, §2

T47D cells = settings: Homo sapiens, 72-hour MTT
Experimental: as §1, §2

U-937 cells = settings: Homo sapiens, 72-hour MTT
Experimental: as §1, §2

NCI-H1299 cells = settings: Homo sapiens, 72-hour MTT
Experimental: as §1, §2

NCI-H226 cells = settings: Homo sapiens, 72-hour MTT
Experimental: as §1, §2

NCI-H929 cells = settings: Homo sapiens, 72-hour MTT
Experimental: as §1, §2

HCC-1428 cells = settings: Homo sapiens, HCC1428, 72-hour MTT
Experimental: as §1, §2

BT-549 cells = settings: Homo sapiens, 72-hour MTT
Experimental: as §1, §2

SW-1417 cells = settings: Homo sapiens, SW1417, 72-hour MTT
Experimental: as §1, §2

Tera-1 cells = settings: 72-hour MTT
Experimental: as §1, §2

HeLa cells = settings: Homo sapiens, 72-hour MTT
Experimental: as §1, §2

MSTO-211H cells = settings: Homo sapiens, 72-hour MTT
Experimental: as §1, §2

HCC-827 cells = settings: Homo sapiens, HCC827, 72-hour MTT
Experimental: as §1, §2

HCC-202 cells = settings: HCC202, 72-hour MTT
Experimental: as §1, §2

BT-20 cells = settings: Homo sapiens, 72-hour MTT
Experimental: as §1, §2

AML-193 cells = settings: 72-hour MTT
Experimental: as §1, §2

Hs738.st cells = settings: 72-hour MTT
Experimental: as §1, §2

RWPE-1 cells = settings: Homo sapiens, 72-hour MTT
Experimental: as §1, §2

AU-565 cells = settings: Homo sapiens, AU565, 72-hour MTT
Experimental: as §1, §2

HCT116 cells = settings: Homo sapiens, HCT-116, 72-hour MTT
Experimental: as §1, §2

HT1080 cells = settings: Homo sapiens, HT-1080, 72-hour MTT
Experimental: as §1, §2

SW-948 cells = settings: Homo sapiens, SW948, 72-hour MTT
Experimental: as §1, §2

Nc1ccc(/C=C/C(=O)NCc2cc3cc(-c4ccc(C(=O)N5CCC(F)(F)CC5)cn4)cc(C(F)(F)F)c3o2)cn1 [Compound 585, (E)-3-(6-aminopyridin-3-yl)-N-((5-(5-(4,4-difluoropiperidine-1-carbonyl)pyridin-2-yl)-7-(trifluoromethyl)benzofuran-2-yl)methyl)acrylamide]
IC50 (RKO cells): 50 nM | IC50 (HTB-38 cells): > 10000 nM | IC50 (NCI-H2170 cells): 1260 nM | IC50 (HCC-2935 cells): 4390 nM | IC50 (HCT116.1 cells): > 10000 nM | IC50 (Panc-1 cells): 840 nM | IC50 (HPAC cells): 380 nM | IC50 (RL cells): 210 nM | IC50 (NCI-H508 cells): 1460 nM | IC50 (KG-1 cells): 150 nM | IC50 (MINO cells): 110 nM | IC50 (DB cells): 290 nM | IC50 (NCI-H2030 cells): 300 nM | IC50 (CAPAN-1 cells): 90 nM | IC50 (ARPE-19 cells): 780 nM | IC50 (PATU-8988T cells): 540 nM | IC50 (PANC-10.05 cells): 870 nM | IC50 (Daudi cells): 40 nM | IC50 (Pfieffer cells): 80 nM | IC50 (SW-403 cells): 380 nM | IC50 (T47D cells): 40 nM | IC50 (U-937 cells): 260 nM | IC50 (NCI-H1299 cells): 190 nM | IC50 (NCI-H226 cells): 6780 nM | IC50 (NCI-H929 cells): 930 nM | IC50 (HCC-1428 cells): 4400 nM | IC50 (BT-549 cells): 1530 nM | IC50 (SW-1417 cells): 1270 nM | IC50 (Tera-1 cells): 120 nM | IC50 (HeLa cells): 60 nM | IC50 (MSTO-211H cells): 250 nM | IC50 (HCC-827 cells): 780 nM | IC50 (HCC-202 cells): 1690 nM | IC50 (BT-20 cells): 540 nM | IC50 (AML-193 cells): 30 nM | IC50 (Hs738.st cells): 450 nM | IC50 (RWPE-1 cells): 4 nM | IC50 (AU-565 cells): 140 nM | IC50 (HCT116 cells): 9820 nM | IC50 (HT1080 cells): 210 nM | IC50 (SW-948 cells): 910 nM
